Literature values, collected in patent publication US20240409939A1 (Hoffmann-La Roche Inc., priority 2021, published 2024).

Assays:
FUBP1 = conditions: Xiong et al 2016; cited from earlier work
FUBP1/FUSE interaction = molecular target: T1, FUBP1/FUSE interaction (Homo sapiens, UniProt Q96AE4); conditions: Hosseini et al 2017; cited from earlier work
T1 sequence (Q96AE4 1-644): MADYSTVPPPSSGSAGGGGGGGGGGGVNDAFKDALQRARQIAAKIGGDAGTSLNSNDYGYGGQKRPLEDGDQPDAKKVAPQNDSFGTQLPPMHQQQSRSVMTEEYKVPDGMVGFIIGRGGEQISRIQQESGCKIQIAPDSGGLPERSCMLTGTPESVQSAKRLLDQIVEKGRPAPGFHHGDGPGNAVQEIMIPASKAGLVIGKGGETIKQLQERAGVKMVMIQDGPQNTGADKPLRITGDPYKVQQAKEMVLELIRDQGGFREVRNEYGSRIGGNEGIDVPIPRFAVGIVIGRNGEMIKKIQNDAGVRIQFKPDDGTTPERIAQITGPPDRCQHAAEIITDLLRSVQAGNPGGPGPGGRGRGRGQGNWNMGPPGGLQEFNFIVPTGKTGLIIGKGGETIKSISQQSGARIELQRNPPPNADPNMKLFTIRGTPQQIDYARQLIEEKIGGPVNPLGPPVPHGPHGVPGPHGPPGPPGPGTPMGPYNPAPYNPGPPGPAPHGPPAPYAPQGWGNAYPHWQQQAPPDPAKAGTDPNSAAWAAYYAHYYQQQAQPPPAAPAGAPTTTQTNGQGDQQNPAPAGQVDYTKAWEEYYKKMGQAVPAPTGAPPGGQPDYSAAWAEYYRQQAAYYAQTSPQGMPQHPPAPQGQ

Structure (SMILES)	FUBP1 expression in osteosarcoma cells (FUBP1)	FUBP1 activity (FUBP1/FUSE interaction) (FUBP1/FUSE interaction)
CCCc1cc(C)[nH]c(=O)c1CNC(=O)c1cc(-c2ccnc(N3CCN(C)CC3)c2)cc2c1cnn2C(C)C [GSK343]	inhibits FUBP1 expression	–
CCc1c2c(nc3ccc(O)cc13)-c1cc3c(c(=O)n1C2)COC(=O)[C@]3(O)CC [SN-38, SN-38 (4 (S), 11-Diethyl-4,9-dihydroxy-3,4,12, 14-tetrahydro-1H-pyrano [3′,4′: 6,7]indolizino [1,2-b]quinoline-3,14-dione 7-Ethyl-10-hydroxycamptothecin)]	–	inhibit FUBP1 activity
CC[C@@]1(O)C(=O)OCc2c1cc1n(c2=O)Cc2cc3ccccc3nc2-1 [camptothecin, Camptothecin ((+)-4 (S)-Ethyl-4-hydroxy-3,4,12, 14-tetrahydro-1H-pyrano [3′,4′: 6,7]indolizino [1,2-b]quinoline-3,14-dione)]	–	inhibit FUBP1 activity
